Source: patent publication US8431888B2, “Electrospray and nanospray ionization of discrete samples in droplet format” (priority 2009, dated 2013)
Read-outs that look alike come from different tables or passages of the source.

What was measured:
[1] = target: T1, acetylcholinesterase (AchE) (Electrophorus electricus, UniProt O42275); assay: biochemical; format: biochemical; conditions: for AchE inhibition in screen (choline production): compound tested at 100 μM, triplicate, peak area ratio of choline to internal standard; for IC50: 10 inhibitor concentrations, 20 min at room temperature, choline formation, sigmoidal dose-response fit
T1 construct: purchased Sigma (St. Louis, Mo.) Type VI-S (catalogue number not given)

AchE = conditions: read-out: previously reported IC50, cited from earlier work
[2] = literature values, experimental conditions not identical

T1 sequence (O42275 24-633): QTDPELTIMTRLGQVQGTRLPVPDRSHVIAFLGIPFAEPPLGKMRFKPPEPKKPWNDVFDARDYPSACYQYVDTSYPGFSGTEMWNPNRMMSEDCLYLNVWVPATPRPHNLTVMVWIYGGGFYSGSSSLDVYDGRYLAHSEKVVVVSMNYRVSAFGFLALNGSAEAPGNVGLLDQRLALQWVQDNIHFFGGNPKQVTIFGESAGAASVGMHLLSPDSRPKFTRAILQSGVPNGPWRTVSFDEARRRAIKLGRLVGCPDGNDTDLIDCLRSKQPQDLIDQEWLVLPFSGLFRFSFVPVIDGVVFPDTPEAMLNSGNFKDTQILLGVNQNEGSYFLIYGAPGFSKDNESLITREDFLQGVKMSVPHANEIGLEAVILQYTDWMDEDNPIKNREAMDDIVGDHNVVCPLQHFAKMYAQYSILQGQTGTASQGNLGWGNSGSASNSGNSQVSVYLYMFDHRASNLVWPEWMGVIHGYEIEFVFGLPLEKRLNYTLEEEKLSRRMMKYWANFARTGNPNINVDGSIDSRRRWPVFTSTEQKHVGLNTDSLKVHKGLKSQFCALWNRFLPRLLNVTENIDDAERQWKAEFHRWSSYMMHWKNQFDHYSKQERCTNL

| Compound | AchE inhibition in screen (choline production) [1] | IC50 (AchE) [µM] | IC50 [1] [µM] | IC50 (AchE; [2]) [µM] |
| --- | --- | --- | --- | --- |
| C[S+](C)[O-] [DMSO] | some inhibition | – | – | – |
| CC[N+](C)(C)c1cccc(O)c1 [edrophonium] | – | 5.4 | 63 ± 11 | – |
| CC(C)NCC(O)c1ccc(O)c(O)c1 (centres unmarked) [isoproterenol] | some inhibition | – | – | – |
| CCOC(=O)CC(SP(=S)(OC)OC)C(=O)OCC (centres unmarked) [malathion] | – | – | 480 ± 70 | 370 |
| CN(C)C(=O)Oc1cccc([N+](C)(C)C)c1 [neostigmine] | – | 0.0113 | – | – |
